Legend:
Test in all cases: relative viability (nuclei count vs DMSO), 5 days (fraction); higher = more cells survive
[1] = compound: C1CNCCC1C2=CC(=NN2)C3=CC=NC=C3 + CS(=O)(=O)N1CCN(Cc2cc3nc(-c4cccc5[nH]ncc45)nc(N4CCOCC4)c3s2)CC1 [Pictilisib] (partner 1 µM)
Method in brief: (§1)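 One day after seeding in 1536-well plates, lung cancer cell lines were dosed by pin tool. Dosing was either single-drug or a fixed anchor-drug dose plus five library-drug doses (not always all listed) in √10 steps. After 5 days, nuclei were stained in one fix-and-stain step and counted on 4× images, and relative viability is the nuclei count of treated wells over that of vehicle wells, given as the median of duplicate plates.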

[2] = compound: C[C@@H](N)c1ccc(C(=O)Nc2ccnc3[nH]ccc23)cc1 + N=C(N)NC(=N)NCCc1ccccc1 [Phenformin] (partner 250 µM)
Method in brief: as §1

[3] = compound: C[C@@H](N)c1ccc(C(=O)Nc2ccnc3[nH]ccc23)cc1 + O=C(c1cc(Cc2n[nH]c(=O)c3ccccc23)ccc1F)N1CCN(C(=O)C2CC2)CC1 [Olaparib] (partner 8 µM)
Method in brief: as §1

Tanzisertib + Crizotinib = compound: O[C@H]1CC[C@H](Nc2ncc3nc(Nc4c(F)cc(F)cc4F)n([C@H]4CCOC4)c3n2)CC1 [Tanzisertib] + C[C@@H](Oc1cc(-c2cnn(C3CCNCC3)c2)cnc1N)c1c(Cl)ccc(F)c1Cl [Crizotinib] (partner 1 µM)
Method in brief: as §1

| Cell Line | relative viability ([1]; first compound 0.08 µM) | relative viability ([1]; first compound 2.53 µM) | relative viability ([1]; first compound 8 µM) | relative viability ([2]; first compound 0.04 µM) | relative viability ([2]; first compound 0.1265 µM) | relative viability ([2]; first compound 0.4 µM) | relative viability ([2]; first compound 1.265 µM) | relative viability ([2]; first compound 4 µM) | relative viability ([3]; first compound 0.04 µM) | relative viability ([3]; first compound 0.1265 µM) | relative viability ([3]; first compound 0.4 µM) | relative viability ([3]; first compound 1.265 µM) | relative viability ([3]; first compound 4 µM) | relative viability (Tanzisertib + Crizotinib; first compound 0.08 µM) | relative viability (Tanzisertib + Crizotinib; first compound 0.253 µM) | relative viability (Tanzisertib + Crizotinib; first compound 0.8 µM) | relative viability (Tanzisertib + Crizotinib; first compound 2.53 µM) | relative viability (Tanzisertib + Crizotinib; first compound 8 µM) | relative viability ([1]; first compound 0.8 µM) |
| --- | --- | --- | --- | --- | --- | --- | --- | --- | --- | --- | --- | --- | --- | --- | --- | --- | --- | --- | --- |
| HCC-78 | 0.21 | 0.189 | 0.223 | 1.05 | 0.818 | 0.855 | 0.797 | 0.797 | 1.05 | 0.964 | 1.16 | 1.4 | 1.08 | 0.287 | 0.331 | 0.313 | 0.332 | 0.286 | – |
| HCC-366 | 0.162 | 0.11 | 0.182 | 0.583 | 0.66 | 0.617 | – | 0.57 | 0.345 | 0.368 | 0.371 | 0.447 | 0.389 | 0.651 | 0.523 | 0.671 | 0.492 | 0.515 | 0.127 |
| HCC-827 | 0.981 | 0.919 | 0.891 | 0.424 | 0.462 | 0.423 | 0.394 | 0.406 | – | 0.764 | 0.834 | 0.739 | 0.542 | 0.903 | 0.964 | 0.931 | 0.892 | 0.559 | 0.918 |
| HOP-62 | 0.654 | 0.791 | 0.717 | 0.607 | 0.609 | 0.636 | 0.552 | 0.607 | 0.43 | 0.381 | 0.419 | – | 0.47 | 0.945 | 0.964 | 1 | 1.05 | 0.824 | 0.816 |
| IA-LM | 0.374 | 0.371 | 0.477 | – | – | – | – | – | 0.824 | 0.996 | 0.914 | 1.11 | 0.914 | 0.927 | 0.544 | – | 0.948 | 0.87 | 0.482 |
| LC-2-ad | 0.43 | 0.625 | 0.48 | 0.549 | 0.599 | 0.609 | – | 0.558 | 0.744 | 0.693 | 0.646 | 0.647 | 0.478 | 0.521 | 0.501 | 0.415 | 0.43 | 0.426 | 0.469 |
| LCLC-97TM1 | 0.275 | 0.283 | 0.175 | 0.418 | 0.458 | 0.521 | 0.365 | 0.427 | 0.416 | 0.429 | 0.342 | 0.526 | 0.342 | – | 0.331 | 0.417 | 0.262 | 0.427 | 0.241 |
| LCLC-103H | 0.499 | 0.617 | 0.64 | 0.284 | 0.351 | 0.329 | 0.268 | 0.308 | 0.8 | 0.748 | 0.769 | 0.827 | 0.628 | 1.06 | 1.01 | 1.11 | 1.09 | 1.01 | 0.61 |
| LK-2 | 0.452 | 0.572 | 0.623 | 0.325 | – | 0.744 | – | 0.636 | 0.732 | 0.658 | 0.746 | 0.482 | 0.864 | 0.233 | 0.271 | 0.232 | 0.244 | 0.235 | 0.746 |
| LOU-NH91 | 0.545 | 0.522 | 0.49 | 0.589 | 0.628 | 0.672 | 0.28 | 0.646 | 0.824 | 0.911 | 0.875 | 0.74 | 0.593 | 0.716 | 0.734 | 0.723 | 0.464 | 0.593 | 0.521 |
| LU99A | 0.321 | 0.316 | 0.307 | – | 0.924 | 0.768 | 0.605 | 0.635 | – | 0.231 | 0.253 | 0.275 | 0.281 | 0.557 | 0.567 | 0.513 | 0.638 | 0.586 | 0.366 |
| LXF-289 | 0.776 | 0.823 | 0.829 | 0.509 | 0.524 | 0.525 | 0.569 | 0.496 | 1.12 | 1.05 | 1.16 | 1.23 | 0.901 | 0.935 | 0.734 | 0.836 | 0.815 | 0.854 | 0.845 |
| NCI-H522 | – | – | – | 0.69 | 0.549 | 0.668 | 0.591 | 0.402 | 0.591 | 0.684 | 0.657 | 0.658 | 0.629 | – | – | – | – | – | – |
| NCI-H1299 | 0.711 | 0.772 | 0.819 | – | – | – | – | – | 0.91 | 0.987 | 0.933 | 0.878 | 0.767 | 0.983 | 0.972 | 0.968 | 0.984 | 1.05 | 0.886 |
| NCI-H1395 | 0.837 | 0.677 | 0.785 | 0.433 | 0.497 | 0.436 | 0.36 | 0.453 | 0.473 | 0.511 | 0.406 | – | 0.393 | – | – | – | – | – | 0.535 |
| NCI-H1563 | 0.575 | 0.592 | 0.611 | 0.623 | 0.74 | 0.632 | 0.687 | 0.641 | – | – | – | – | – | 0.85 | 0.937 | 0.869 | 0.966 | 0.79 | 0.662 |
| NCI-H1623 | – | – | – | 0.637 | 0.528 | 0.415 | 0.29 | 0.622 | – | – | – | – | – | – | – | – | – | – | – |
| NCI-H1648 | – | – | – | – | – | – | – | – | 1.01 | 1.02 | 1.93 | 1.71 | 1.29 | – | – | – | – | – | – |
| NCI-H1703 | 0.253 | 0.21 | 0.22 | – | – | – | – | – | 0.374 | 0.476 | 0.348 | – | 0.463 | 0.538 | 0.573 | 0.69 | 1.08 | 0.723 | 0.253 |
| NCI-H1793 | 0.294 | 0.422 | 0.358 | 0.355 | 0.424 | 0.421 | – | 0.393 | 1.09 | 0.999 | 1.04 | – | 0.928 | – | – | – | – | – | 0.357 |
| NCI-H2342 | – | – | – | 0.718 | 0.731 | 0.676 | 0.718 | 0.622 | 0.454 | 0.469 | 0.405 | 0.481 | 0.388 | – | – | – | – | – | – |
| SW 900 | – | – | – | 0.852 | 0.687 | 0.512 | 0.618 | 0.531 | 1.03 | 0.918 | 1.21 | 0.883 | 1.08 | – | – | – | – | – | – |

From the supplement of paper PMC10307832
